Here are results for 30 molecules from patent publication US20130261165A1, “PREVENTION AND TREATMENT OF DISEASES CHARACTERIZED BY MESENCEPHALIC DOPAMINERGIC NEURON CELL DEATH” (THE MCLEAN HOSPITAL CORPORATION, priority 2010, published 2013).

Series [1] deals with En-1. The series can be described thus: En-1 mRNA expression by qPCR in primary ventral midbrain cultures. The note with it: for fold induction at 10 µM: Mus musculus, 24 h, read-out: Fold Increase in En-1 Expression. In general terms: In qPCR the cycle at which signal appears reflects the starting amount.
Protocol: (§5) One library consisting of FDA-approved and non-FDA approved drugs (NINDS) was screened for drugs with an ability to up-regulate En-1 and/or FoxA2 expression in neuronal cells. Candidate compounds were screened in a gene expression assay using a qPCR detection methodology in a primary ventral midbrain preparation of E12 mice.
(§6) To determine the extent of upregulation in the compounds of interest after initial screening, primary cultures of ventral midbrain cells of E12 CD1 mice were prepared. The embryonic ventral midbrains were removed and stored in HBSS on ice. The dissection time was less than 30-60 minutes. The ventral midbrain tissue was dissociated by removal of the HBSS and addition of 1 ml of 0.05% trypsin-EDTA for 10 minutes at 37° C. During incubation, the tissue and the trypsin-EDTA solution was mixed by occasional careful swirling of the tube. The reaction was stopped, the trypsin aspirated, and 1 ml of 50% HBSS/FBS was added. […] Candidate compound treatment was stopped by cell lysis. The mRNA was isolated and cDNA was synthesized using the Qiagen Turbocapture™ kit (Qiagen Inc., Valencia, Calif.) using Superscript III® reverse transcriptase (Life Technologies, Carlsbad, Calif.) according to manufacturer's protocol. En-1 and FOXA2 mRNA in the cultured cells was quantified using qPCR. […] Assay fluorescence was determined using a Step-One Plus fluorescence plate reader in 96-well plates at a standard reaction time for ramp speed.
(§7) The fold change in mRNA expression level was calculated according to the following formulas:
Fold change=2^−ΔΔCt wherein [1]
(§8) ΔΔCt=(Cttarget gene−Ct18S)treated−(Cttarget gene−Ct18S)untreated.
(§9) In formula 2, Cttarget gene refers to the Ct value determined for either En-1 or FOXA2 (as appropriate) and Ct18S refers to the Ct value determined for the mRNA encoding the 18S ribosomal subunit, each measured by qPCR.
Series [2] deals with FoxA2. The series can be described thus: FoxA2 mRNA expression by qPCR in primary ventral midbrain cultures. As to conditions: for fold induction at 10 µM: Mus musculus, 24 h, read-out: Fold Increase in FoxA2 Expression.
Protocol: as §5, §6, §7
Fold change=2^−ΔΔCt wherein [1]
as §8, §9
Series [3] relates to En-1. The note with it: adult male C57 mice, 20 mg/kg/day subcutaneous for 12 days, n=8, qPCR vs GAPDH and β-actin, listed as duloxetine HCl, hydrochloride. How it is done: (§1) Adult mice were treated with duloxetine HCl (20 mg/kg/day) by subcutaneous injection for 12 days (n=8). […] Data were obtained by qPCR analysis using GAPDH and β-actin as housekeeping genes followed by ΔΔCt calculation.
(§2) Duloxetine HCl (20 mg/kg/day) or saline vehicle was administrated subcutaneously into adult male C57 mice over a period of 12 days. […] Substantia nigra pars compacta was fresh dissected and snap frozen in RNA preserving solution in liquid nitrogen. […] Changes in mRNA expression due to duloxetine HCl treatment were determined by quantitative PCR using a Step One Plus Instrument and TaqMan® reagents (Applied Biosystems). […] Beta actin and GAPD were used as housekeeping genes and fold regulation was calculated using the delta Ct method.
(§3) ΔΔCt=(Cttarget gene−Cthousekeeping gene)treated−(Cttarget gene−Cthousekeeping gene)untreated
(§4) Untreated refers to combined cDNA from the saline treated animals. cDNA from each saline treated animal was also run against the pooled control cDNA.

Series [4] concerns FoxA2. The note with it: adult male C57 mice, 20 mg/kg/day subcutaneous for 12 days, n=8, qPCR vs GAPDH and β-actin, listed as duloxetine HCl, hydrochloride. How it is done: as §1, §2, §3, §4
In series [5] the test system is FoxA2 positive dopaminergic neurons. The note with it: 10 μM pre-treatment 24 hours prior to 6-OHDA (1-50 μM); control = cells not exposed to toxin.
Protocol: The embryonic ventral midbrains were removed and stored in HBSS on ice. The dissection time was less than 30-60 minutes. The ventral midbrain tissue was dissociated by removal of the HBSS and the addition of 1 ml of 0.05% trypsin-EDTA for 10 minutes at 37° C. During incubation, the tissue and the trypsin-EDTA solution was mixed by occasional careful swirling of the tube. The reaction was stopped, the trypsin aspirated, and 1 ml of 50% HBSS/FBS was added. […] The tissue was triturated using an autoclaved glass pasteur pipette with narrowed opening and a stripettor. The cell suspension was centrifuged at 1000 rpm for 5 min, the supernatant aspirated, and the cells resuspended in E12 media. Twenty-five thousand cells per well were plated in 96 well PLO/laminin coated black-wall imaging plates (Costar) and incubated for 6 days without candidate compound treatment. […] 6-hydroxydopamine hydrobromide (6-OHDA) (Sigma) was reconstituted in ascorbic acid and PBS and added at concentrations of 1-50 μM to the cultures. […] Cultures were stained for tyrosine hydroxylase, FoxA2 and Hoechst and visualized using alexa fluor secondary antibodies. Cultures were analyzed by high content analysis (using an InCell 2000 instrument). The percentage of FoxA2 positive dopaminergic neurons were documented.
For series [6] the following is noted: cited from earlier work.
[7] abbreviates: primary ventral midbrain cells of E12 CD1 mice, 10 μM for 24 hours, qPCR vs 18S.

Values joined by “and” are separate entries in the source; they are usually repeats but may differ in a detail not shown here. Equal values may be shown once. Where a name gives a salt, the structure may show the parent alone.

In the case of `CC1(C)O[C@@H]2C[C@H]3[C@@H]4C[C@H](F)C5=CC(=O)CC[C@]5(C)[C@H]4[C@@H](O)C[C@]3(C)[C@]2(C(=O)CO)O1` [Flurandrenolide], the fold induction at 10 µM in the series on En-1 [1] was 1.5; with FoxA2 [2], 1.9.
As for `Cc1ccccc1C(OCCN(C)C)c1ccccc1` (stereo not drawn) [Orphenadrine citrate], the values for the fold induction at 10 µM in the series with En-1 [1] and in the series on FoxA2 [2] were 1.69 and 1.82, respectively.
As for `CC(=O)O[C@]1(C(C)=O)CC[C@H]2[C@@H]3C=C(C)C4=CC(=O)CC[C@]4(C)[C@H]3CC[C@@]21C` [Megestrol acetate], the fold induction at 10 µM was determined as 2.14 with En-1 [1] and 1.89 in the series with FoxA2 [2].
Regarding `CNCC[C@H](Oc1cccc2ccccc12)c1cccs1` [Duloxetine hydrochloride], the “En-1 mRNA expression in substantia nigra, fold increase” value with En-1 [3] is 1.98 fold and 1.98±0.098 fold. Moreover, in the series with FoxA2 [4], the “FoxA2 mRNA expression in substantia nigra, fold increase” value is 2.19 fold and 2.19±0.23 fold. The fold induction at 10 µM is 19 in the series with En-1 [1] and 49.5 in the series on FoxA2 [2]. For the same molecule, in series [5], the “DA neuron survival as a percentage of control” value is listed as 107%.
Take `CC(=O)S[C@@H]1CC2=CC(=O)CC[C@]2(C)[C@H]2CC[C@@]3(C)[C@@H](CC[C@@]34CCC(=O)O4)[C@H]12` [Spironolactone]: the fold induction at 10 µM came out at 1.34 in the series on En-1 [1] and 1.74 with FoxA2 [2].
Consider `CC(N)C12CC3CC(CC(C3)C1)C2` (stereo not drawn) [Rimantadine hydrochloride], for which the fold induction at 10 µM was found to be 1.3 in the series on En-1 [1] and 2.7 in the series with FoxA2 [2].
Taken in the same sequence, the figures for `CO[C@@]1(NC(=O)C(C(=O)O)c2ccc(O)cc2)C(=O)N2C(C(=O)O)=C(CSc3nnnn3C)CO[C@@H]21` (stereo partly drawn) [Moxalactam disodium] were 4.34 and 7.31.
For `Cn1cc[nH]c1=S` [Methimazole], the results for the fold induction at 10 µM with En-1 [1] and in the series on FoxA2 [2] were 0.2 and 1.97, respectively.
As to `CC(CCc1ccccc1)NC(C)C(O)c1ccc(O)cc1` (stereo not drawn) [Nylidrin hydrochloride], the fold induction at 10 µM in the series on FoxA2 [2] amounted to 1.7.
`c1ccc(CC2=NCCN2)cc1` [Tolazoline hydrochloride]: the values for the fold induction at 10 µM with En-1 [1] and with FoxA2 [2] were 2.51 and 2.67, respectively.
For `CCN1CCCC1CNC(=O)c1cc(S(N)(=O)=O)ccc1OC` (stereo not drawn) [Sulpiride], the fold induction at 10 µM with En-1 [1] is 1.4; in the series on FoxA2 [2], 1.7.
In the case of `CCOC(=O)[C@H](CCc1ccccc1)N[C@@H](C)C(=O)N1[C@H](C(=O)O)C[C@H]2CCCC[C@@H]21` [Trandolapril], in the series on En-1 [1], the fold induction at 10 µM stood at 17.9.
As for `NC(=O)c1cc([N+](=O)[O-])cc([N+](=O)[O-])c1` [Nitromide], in the series on En-1 [1] (setting [7]), the “Fold Increase in En-1 Expression” value is given as 0.28 Fold. For the same molecule, in the series with FoxA2 [2] (setting [7]), the “Fold Increase in FoxA2 Expression” value is 1.55 Fold.
Consider `C#CCN(C)Cc1ccccc1` [Pargyline hydrochloride], for which the fold induction at 10 µM is 1.73 with En-1 [1] and 1.27 in the series on FoxA2 [2].
Consider `O=C(O)c1ccccc1Nc1cccc(C(F)(F)F)c1` [Flufenamic acid], for which the results for the fold induction at 10 µM with En-1 [1] and with FoxA2 [2] were 2.6 and 3.4, respectively.
In the case of `c1ccc2c(c1)CCCC2C1=NCCN1` (stereo not drawn) [Tetrahydrozoline hydrochloride], the fold induction at 10 µM in the series on En-1 [1] was found to be 1.06; in the series on FoxA2 [2] it was 2.06.
Consider `Cc1cc(=O)[nH]c(=S)[nH]1` [Methylthiouracil], for which the fold induction at 10 µM with FoxA2 [2] worked out at 2.34.
On to `CCCc1cc(=O)[nH]c(=S)[nH]1` [Propylthiouracil], for which the fold induction at 10 µM in the series with En-1 [1] was 1.3; with FoxA2 [2] it was 1.68.
`CCC1(c2ccccc2)C(=O)NCNC1=O` [Primidone]: the fold induction at 10 µM came out at 0.86 in the series with En-1 [1] and 1.43 in the series with FoxA2 [2].
`CC(C)NCC(O)COc1cccc2[nH]ccc12` (stereo not drawn) [Pindolol]: the figures for the fold induction at 10 µM in the series with En-1 [1] and with FoxA2 [2] were 9.8 and 44.1, respectively.
As for `C[C@H]1C[C@@H]2[C@H]([C@@H](O)C[C@@]3(C)[C@H]2CC[C@]3(O)C(=O)CO)[C@@]2(C)C=CC(=O)C=C12` [Methylprednisolone], the fold induction at 10 µM with En-1 [1] was found to be 1.38; in the series on FoxA2 [2] it was 1.41.
With `COc1ccccc1OCC(O)COC(N)=O` (stereo not drawn) [Methocarbamol], the fold induction at 10 µM in the series on En-1 [1] was 1.83; in the series with FoxA2 [2] it was 2.3.
As for `CCCCNC(=O)NS(=O)(=O)c1ccc(C)cc1` [Tolbutamide], the fold induction at 10 µM with En-1 [1] amounted to 21.6; in the series with FoxA2 [2], 35.
Taken in the same sequence, the figures for `CC(=O)c1ccc(S(=O)(=O)NC(=O)NC2CCCCC2)cc1` [Acetohexamide] were 2.3 and 3.
For `NNCCc1ccccc1` [Phenelzine sulfate], the fold induction at 10 µM with FoxA2 [2] is 2.5.
`c1ccc2c(CC3=NCCN3)cccc2c1` [Naphazoline hydrochloride]: the fold induction at 10 µM in the series with En-1 [1] turned out to be 8.95; with FoxA2 [2], 1.99.
The corresponding values for `O=C1CC[C@@]2(O)[C@H]3Cc4ccc(O)c5c4[C@@]2(CCN3CC2CC2)[C@H]1O5` [Naltrexone hydrochloride] are 2.09 and 3.39.
For the molecule `C[N+]1(C)[C@@H]2C[C@@H](OC(=O)[C@H](CO)c3ccccc3)C[C@H]1[C@@H]1O[C@@H]12` [Methscopolamine bromide], the fold induction at 10 µM with En-1 [1] and in the series with FoxA2 [2] was 1.9 in each case.
In the case of `CNCC[C@H](Oc1cccc2ccccc12)c1cccs1` [Duloxetine], the “dosage hydrolyzed to 1-naphthol” value in series [6] (pH 1.0, within one hour) is given as 50%. For the same molecule, in series [6] (pH 2.0, in one hour), the “dosage degraded to 1-naphthol” value is recorded as 10%. For the same molecule, the “time for 10% degradation” value in series [6] (pH 4.0) is “up to 63 hours”.
Turning to `COc1ccc2c(c1OC)C(=O)O[C@@H]2[C@H]1c2c(cc3c(c2OC)OCO3)CCN1C` [Noscapine hydrochloride], the fold induction at 10 µM with En-1 [1] stood at 1.83; with FoxA2 [2] it was 1.45.
